Source: US20080045537A1, “Chemical Compounds” (priority 2004, published 2008)

Tested on: HIV-1 IIIB (T-tropic, CXCR4 utilizing)
Experiment: HOS HIV-1 infectivity assay
Type: cell-based
Conditions: Human immunodeficiency virus 1, IIIB, read-out: Activity Level
Method: Compounds were profiled against two HIV-1 viruses, the M-tropic (CCR5 utilizing) Ba-L strain and the T-tropic (CXCR4 utilizing) IIIB strain. Both viruses were propagated in human peripheral blood lymphocytes. Compounds were tested for there ability to block infection of the HOS cell line (expressing hCXCR4/hCCR5/hCD4/pHIV-LTR-luciferase) by either HIV-1 Ba-L or HIV-1 IIIB. Compound cytotoxicity was also examined in the absence of virus addition.
HOS cells (expressing hCXCR4/hCCR5/hCD4/pHIV-LTR-luciferase) were harvested and diluted in Dulbeccos modified Eagles media supplemented with 2% FCS and non-essential amino acid to a concentration of 60,000 cells/ml. The cells were plated into 96-well plates (100 ul per well) and the plates were placed in a tissue culture incubator (37° C.; 5% CO2/95% air) for a period of 24 h.
Subsequently, 50 ul of the desired drug solution (4 times the final concentration) was added to each well and the plates were returned to the tissue culture incubator (37° C.; 5% CO2/95% air) for 1 h. Following this incubation 50 ul of diluted virus was added to each well (approximately 2 million RLU per well of virus). The plates were returned to the tissue culture incubator (37° C.; 5% CO2/95% air) and were incubated for a further 96 h.
Following this incubation the endpoint for the virally infected cultures was quantified following addition of Steady-Glo Luciferase assay system reagent (Promega, Madison, Wis.). Cell viability or non-infected cultures was measured using a CellTiter-Glo luminescent cell viability assay system (Promega, Madison, Wis.). All luminescent readouts are performed on a Topcount luminescence detector (Packard, Meridien, Conn.).

| Compound | IC50 |
| --- | --- |
| CN(Cc1nc2c(C(=O)N3C[C@@H]4C[C@H]3CN4)cccc2[nH]1)C1CCCc2cccnc21 (stereo partly drawn) [Example 92, N-({4-[(1S,4S)-2,5-diazabicyclo[2.2.1]hept-2-ylcarbonyl]-1H-benzimidazol-2-yl}methyl)-N-methyl-5,6,7,8-tetrahydro-8-quinolinamine] | < 100 nM |

Same assay, conditions: Human immunodeficiency virus 1, IIIB; as determined by the infectivity assay; strain not stated in Table 2; read-out: Activity Level

| Compound | IC50 |
| --- | --- |
| CN(Cc1nc2c(C(=O)NC3CCNCC3)cccc2[nH]1)C1CCCc2cccnc21 (stereo not drawn) [Example 77, 2-{[Methyl(5,6,7,8-tetrahydro-8-quinolinyl)amino]methyl}-N-4-piperidinyl-1H-benzimidazole-4-carboxamide] | 100 to 500 nM |
| CN(Cc1nc2c(C(=O)NC3CCNC3)cccc2[nH]1)C1CCCc2cccnc21 (stereo not drawn) [Example 78, 2-{[Methyl(5,6,7,8-tetrahydro-8-quinolinyl)amino]methyl}-N-3-pyrrolidinyl-1H-benzimidazole-4-carboxamide] | < 100 nM |
| CN(Cc1nc2c(C(=O)NCCCn3ccnc3)cccc2[nH]1)C1CCCc2cccnc21 (stereo not drawn) [Example 79, N-[3-(1H-Imidazol-1-yl)propyl]-2-{[methyl(5,6,7,8-tetrahydro-8-quinolinyl)amino]methyl}-1H-benzimidazole-4-carboxamide] | < 100 nM |
| CN(C)CC(C)(C)CNC(=O)c1cccc2[nH]c(CN(C)C3CCCc4cccnc43)nc12 (stereo not drawn) [Example 80, N-[3-(Dimethylamino)-2,2-dimethylpropyl]-2-{[methyl(5,6,7,8-tetrahydro-8-quinolinyl)amino]methyl}-1H-benzimidazole-4-carboxamide] | 100 to 500 nM |
| CN(Cc1nc2c(C(=O)NCCc3c[nH]c4ccccc34)cccc2[nH]1)C1CCCc2cccnc21 (stereo not drawn) [Example 81, N-[2-(1H-Indol-3-yl)ethyl]-2-{[methyl(5,6,7,8-tetrahydro-8-quinolinyl)amino]methyl}-1H-benzimidazole-4-carboxamide] | 500 to 10000 nM |
| CN(Cc1nc2c(C(=O)N3CCC(N)CC3)cccc2[nH]1)C1CCCc2cccnc21 (stereo not drawn) [Example 82, N-({4-[(4-Amino-1-piperidinyl)carbonyl]-1H-benzimidazol-2-yl}methyl)-N-methyl-5,6,7,8-tetrahydro-8-quinolinamine] | < 100 nM |
| CN(Cc1nc2c(C(=O)N3CCC(N)C3)cccc2[nH]1)C1CCCc2cccnc21 (stereo not drawn) [Example 83, N-({4-[(3-amino-1-pyrrolidinyl)carbonyl]-1H-benzimidazol-2-yl}methyl)-N-methyl-5,6,7,8-tetrahydro-8-quinolinamine] | < 100 nM |
| CCS(=O)(=O)N1CCN(C(=O)c2cccc3[nH]c(CN(C)C4CCCc5cccnc54)nc23)CC1 (stereo not drawn) [Example 85, N-[(4-{[4-(Ethylsulfonyl)-1-piperazinyl]carbonyl}-1H-benzimidazol-2-yl)methyl]-N-methyl-5,6,7,8-tetrahydro-8-quinolinamine] | 100 to 500 nM |
| CN1CCCN(C(=O)c2cccc3[nH]c(CN(C)C4CCCc5cccnc54)nc23)CC1 (stereo not drawn) [Example 86, N-Methyl-N-({4-[(4-methylhexahydro-1H-1,4-diazepin-1-yl)carbonyl]-1H-benzimidazol-2-yl}methyl)-5,6,7,8-tetrahydro-8-quinolinamine] | < 100 nM |
| CN1CCC(NC(=O)c2cccc3[nH]c(CN(C)C4CCCc5cccnc54)nc23)CC1 (stereo not drawn) [Example 88, N-(1-methyl-4-piperidinyl)-2-{[methyl(5,6,7,8-tetrahydro-8-quinolinyl)amino]methyl}-1H-benzimidazole-4-carboxamide] | 100 to 500 nM |
| CN(C)C1CCN(C(=O)c2cccc3[nH]c(CN(C)C4CCCc5cccnc54)nc23)C1 (stereo not drawn) [Example 89, N-[(4-{[3-(Dimethylamino)-1-pyrrolidinyl]carbonyl}-1H-benzimidazol-2-yl)methyl]-N-methyl-5,6,7,8-tetrahydro-8-quinolinamine] | 100 to 500 nM |
| CN(CCc1c[nH]cn1)C(=O)c1cccc2[nH]c(CN(C)C3CCCc4cccnc43)nc12 (stereo not drawn) [Example 90, N-[2-(1H-imidazol-4-yl)ethyl]-N-methyl-2-{[methyl(5,6,7,8-tetrahydro-8-quinolinyl)amino]methyl}-1H-benzimidazole-4-carboxamide] | < 100 nM |
| CC1CNCCN1C(=O)c1cccc2[nH]c(CN(C)C3CCCc4cccnc43)nc12 (stereo not drawn) [Example 91, N-methyl-N-({4-[(2-methyl-1-piperazinyl)carbonyl]-1H-benzimidazol-2-yl}methyl)-5,6,7,8-tetrahydro-8-quinolinamine] | < 100 nM |
| CN(C)CCCc1cccc2[nH]c(CN(C)C3CCCc4cccnc43)nc12 (stereo not drawn) [Example 94, N-({4-[3-(Dimethylamino)propyl]-1H-benzimidazol-2-yl}methyl)-N-methyl-5,6,7,8-tetrahydro-8-quinolinamine] | < 100 nM |
| CN(Cc1nc2c(CCCN3CCCC3)cccc2[nH]1)C1CCCc2cccnc21 (stereo not drawn) [Example 95, N-Methyl-N-({4-[3-(1-pyrrolidinyl)propyl]-1H-benzimidazol-2-yl}methyl)-5,6,7,8-tetrahydro-8-quinolinamine] | < 100 nM |
| CN(Cc1nc2c(CCCN3CCCCC3)cccc2[nH]1)C1CCCc2cccnc21 (stereo not drawn) [Example 96, N-methyl-N-({4-[3-(1-piperidinyl)propyl]-1H-benzimidazol-2-yl}methyl)-5,6,7,8-tetrahydro-8-quinolinamine] | < 100 nM |
| CN(Cc1nc2c(-n3ccnc3)cccc2[nH]1)C1CCCc2cccnc21 (stereo not drawn) [Example 101, N-{[4-(1H-Imidazol-1-yl)-1H-benzimidazol-2-yl]methyl}-N-methyl-5,6,7,8-tetrahydro-8-quinolinamine] | 100 to 500 nM |
| CN(Cc1nc2c(NC(=O)c3cccnc3)cccc2[nH]1)C1CCCc2cccnc21 (stereo not drawn) [Example 102, N-(2-{[Methyl(5,6,7,8-tetrahydro-8-quinolinyl)amino]methyl}-1H-benzimidazol-4-yl)-3-pyridinecarboxamide] | 100 to 500 nM |
| CN(Cc1nc2c(NC(=O)c3ccncc3)cccc2[nH]1)C1CCCc2cccnc21 (stereo not drawn) [Example 103, N-(2-{[Methyl(5,6,7,8-tetrahydro-8-quinolinyl)amino]methyl}-1H-benzimidazol-4-yl)-4-pyridinecarboxamide] | 500 to 10000 nM |
| CN(Cc1nc2c(NC(=O)[C@@H]3CCCN3C)cccc2[nH]1)C1CCCc2cccnc21 (stereo partly drawn) [Example 104, 1-Methyl-N-(2-{[methyl(5,6,7,8-tetrahydro-8-quinolinyl)amino]methyl}-1H-benzimidazol-4-yl)-L-prolinamide] | 100 to 500 nM |

The next lines start with the values.

| IC50 | Compound |
| --- | --- |
| < 100 nM | CN(Cc1nc2c(C(=O)NCc3nc4ccccc4[nH]3)cccc2[nH]1)C1CCCc2cccnc21 (stereo not drawn) [Example 75, N-(1H-Benzimidazol-2-ylmethyl)-2-{[methyl(5,6,7,8-tetrahydro-8-quinolinyl)amino]methyl}-1H-benzimidazole-4-carboxamide] |
| 100 to 500 nM | CN(Cc1nc2c(C(=O)NCCc3ccccn3)cccc2[nH]1)C1CCCc2cccnc21 (stereo not drawn) [Example 76, 2-{[Methyl(5,6,7,8-tetrahydro-8-quinolinyl)amino]methyl}-N-[2-(2-pyridinyl)ethyl]-1H-benzimidazole-4-carboxamide] |
| 100 to 500 nM | CC(=O)N1CCN(C(=O)c2cccc3[nH]c(CN(C)C4CCCc5cccnc54)nc23)CC1 (stereo not drawn) [Example 84, N-({4-[(4-Acetyl-1-piperazinyl)carbonyl]-1H-benzimidazol-2-yl}methyl)-N-methyl-5,6,7,8-tetrahydro-8-quinolinamine] |
| 100 to 500 nM | CC(C)N1CCN(C(=O)c2cccc3[nH]c(CN(C)C4CCCc5cccnc54)nc23)CC1 (stereo not drawn) [Example 87, N-Methyl-N-[(4-{[4-(1-methylethyl)-1-piperazinyl]carbonyl}-1H-benzimidazol-2-yl)methyl]-5,6,7,8-tetrahydro-8-quinolinamine] |
| < 100 nM | CN(Cc1nc2c(C(=O)N3CCCNCC3)cccc2[nH]1)C1CCCc2cccnc21 (stereo not drawn) [Example 93, N-{[4-(hexahydro-1H-1,4-diazepin-1-ylcarbonyl)-1H-benzimidazol-2-yl]methyl}-N-methyl-5,6,7,8-tetrahydro-8-quinolinamine] |
| < 100 nM | CN(Cc1nc2c(CCCN)cccc2[nH]1)C1CCCc2cccnc21 (stereo not drawn) [Example 97, N-{[4-(3-aminopropyl)-1H-benzimidazol-2-yl]methyl}-N-methyl-5,6,7,8-tetrahydro-8-quinolinamine] |
| 100 to 500 nM | CN(Cc1nc2c(NC(=O)CN)cccc2[nH]1)C1CCCc2cccnc21 (stereo not drawn) [Example 99, N^1-(2-{[methyl(5,6,7,8-tetrahydro-8-quinolinyl)amino]methyl}-1H-benzimidazol-4-yl)glycinamide] |
| 100 to 500 nM | CN(Cc1nc2c(NC(=O)CCN3CCCCC3)cccc2[nH]1)C1CCCc2cccnc21 (stereo not drawn) [Example 100, N-(2-{[methyl(5,6,7,8-tetrahydro-8-quinolinyl)amino]methyl}-1H-benzimidazol-4-yl)-3-(1-piperidinyl)propanamide] |
| 100 to 500 nM | CN(Cc1nc2c(NC(=O)C(C)(C)N)cccc2[nH]1)C1CCCc2cccnc21 (stereo not drawn) [Example 105, 2-Methyl-N-1-(2-{[methyl(5,6,7,8-tetrahydro-8-quinolinyl)amino]methyl}-1H-benzimidazol-4-yl)alaninamide] |
